Here are results for 13 molecules from patent publication EP2570413A1, “Benzothiazinone derivatives as anti-tuberculosis agents” (The University Of Queensland, priority 2011, dated 2013).

Structures are written as SMILES. ≈ marks a conversion by molar mass, not a printed value.

As a reminder, the MIC is the least concentration at which growth counts as inhibited. By zone of inhibition is commonly meant the size of the clear area around the sample on an inoculated plate.

Series [1] has as its system MDR M. tuberculosis. Nature of the series: MIC assay, broth microdilution. The series is classed as cell-based. The following applies: for MIC: Mycobacterium tuberculosis, read-out: MIC M. 1b.
Series [2] deals with M. smegmatis SG987. Nature of the series: MIC assay, broth microdilution. In kind it is cell-based, Mycobacterium smegmatis. The following applies: for MIC: Mycolicibacterium smegmatis, SG987, read-out: MIC M. smeg. SG987. The text has this:
The protocol used is the broth microdilution method in microtiter plates (MTP), based upon that detailed by the CLSI (Clinical and Laboratory Standards Institute (CLSI). 2006. Methods for Dilution Antimicrobial Susceptibility Tests for Bacteria that Grow Aerobically; Approved Standard. 7th edn. Document M7-A6. Clinical and Laboratory Standards Institute, Wayne, PA.).
Strain: Mycobacterium smegmatis, ATCC 700084, or other Mycobacterium strains (see table below).
Medium: The bacteria culture and the MIC were done using the following medium: MHB - Mueller-Hinton Broth + 0.05% Tween80, purchased from Difco, Tween80 has been added to avoid clumping of the bacteria.
This highest concentration is filled in the first row of the microtiter plate and further diluted in the culture medium for the Mycobacteria (Mueller-Hinton Broth and Middlebrook 7H9 broth). All solutions are freshly prepared under sterile conditions.
Resazurin salt powder (Sigma) is prepared at 0.01 % (wt/vol) in distilled water, sterilized by filtration through a 0.22 µm membrane and stored at 4°C for a week.
Ciprofloxacin, isoniaz-d and rifampicin can be used as reference compounds for control of the assay as well as a solvent control. Minimal inhibitory concentrations (MIC) are determined by the broth microdilution method. 50 µl of the compound solution in DMSO/MeOH are serially diluted directly in the microtiter plate by factor two with Mueller-Hinton broth (MHB)(Difco). Then the wells are inoculated with 50 µl of test organisms in MHB to give a final concentration of 5x10^5 CFU/ml. After microtiter plates are incubated at 37°C for 48 h, the optical density of each well is measured with a Nepheloscan Ascent 1.4 automatic plate reader (Labsystems, Vantaa, Finland). Then 30 µl of resazurin solution is added to each well and plates are allowed to incubate at 37°C for additional 24 h. A change from blue to pink indicates reduction of resazurin and therefore bacterial growth. The MIC is defined as the lowest drug concentration that prevents this colour change.
(In general: In broth dilution the organism is exposed to a series of concentrations in liquid medium.)

Series [3] has as its system M. vaccae 10670. Nature of the series: MIC assay, broth microdilution. To be noted: for MIC: Mycolicibacterium vaccae, 10670. The series is classed as cell-based.
Series [4] is described as follows: Metabolic stability, human. The series is classed as in vitro ADME.
Series [5] concerns M. smegmatis SG987. Nature of the series: Agar diffusion assay. To be noted: for zone of inhibition at 1 µg/mL: Mycolicibacterium smegmatis; for colonies in the inhibition zone: at 1 µg/ml. The arrangement: key to colonies in the inhibition zone: (p): few colonies in the inhibition zone; p: colonies in the inhibition zone; P: many colonies in the inhibition zone; A: faint indication of inhibition zone. The series is classed as cell-based, Mycobacterium smegmatis. The method, then: Antimicrobial activity is additionally determined by agar diffusion tests according to: European Pharmacopoeia, 3rd edition, 1997; 13, 118, Deutscher Apotheker Verlag Stuttgart
100 µl suspension of the test organism M. smegmatis SG987 with a density of McFarland standard 0.5 are inoculated into 34 ml of sterile melted agar medium (Nutrient agar from Serva Electrophoresis GmbH, Heidelberg, Germany) and poured into Petri dishes. Wells of 9 mm in diameter are cut in the agar and filled with 50 µl of the compound solution (for concentrations see Table 2). Compounds are dissolved in DMSO in a concentration of 1 mg/ml and further diluted in methanol to the final concentration. Growth inhibition zones around the agar wells are read after overnight incubation at 37°C.
In general terms: Agar diffusion results depend on both activity and mobility in agar.

The nature of series [6]: Plasma stability, mouse. The series is classed as in vitro ADME.
Series [7] is described as follows: Metabolic stability, mouse. The series is classed as in vitro ADME.
Series [8] is described as follows: Chemical stability in NaCl/HCl/pepsin. In kind it is physicochemical.
A short description of series [9]: Plasma stability, human. In kind it is in vitro ADME.
The subject of series [10] is Mycobacteria. To be noted: existing anti-tuberculosis drugs, comparison values; cited from earlier work.
Series [11] relates to M fort. Nature of the series: MIC assay, broth microdilution. The series is classed as cell-based.
The test system of series [12] is M. aurum. Nature of the series: MIC assay, broth microdilution. The series is classed as cell-based. The following applies: Mycolicibacterium aurum.
For series [13], the system named is M. tuberculosis H37Rv. Nature of the series: In-vivo mouse survival. To be noted: 50 img/kg.
The mark [14] stands for this setting: Human, test compound 1 µM in NADP (1.3 mM), G6P 3.3 mM, G6PDHase, DMSO.
[15] abbreviates: Mouse, test compound 5 µM in plasma.
Where [16] appears, read: Mouse, test compound 1 µM in NADP (1.3 mM), G6P 3.3 mM, G6PDHase, DMSO.
Where [17] appears, read: Test compound 5 µM in 35mM NaCl, 85 mM HCl, appr. 2000 U pepsin.
The mark [18] stands for this setting: Human, test compound 5 µM in plasma.

Regarding `Cc1ccc(C2CCN(c3nc(=O)c4cc(C(F)(F)F)cc([N+](=O)[O-])c4s3)CC2)cc1` [Compound 3], the MIC in [1] was 8 ng/mL (≈ 17.8 nM); in series [2] it was less than 5 ng/mL; in [3], less than 0.0012 ng/mL. In series [4] (setting [14]), the “Metabolic Stability Human” value is listed as 30%. In [5], this molecule gave a zone of inhibition at 1 µg/mL of less than 22 mm. Moreover, the “Plasma Stability Mouse” value in series [6] (setting [15]) is reported as 108%. The “Metabolic Stability Mouse” value in series [7] (setting [16]) was 9%. The “Chemical Stability” value in [8] (setting [17]) is reported as 54%. Further, the “Plasma Stability Human” value in series [9] (setting [18]) stood at 98%.

In the case of `O=c1nc(N2CCC(c3ccccc3F)CC2)sc2c([N+](=O)[O-])cc(C(F)(F)F)cc12` [Compound 8], the MIC was 8 ng/mL (≈ 17.6 nM) in series [1], less than 5 ng/mL in series [2] and less than 0.0012 ng/mL in series [3]. The “Metabolic Stability Human” value in [4] (setting [14]) was determined as 69%. Also, in series [5], the zone of inhibition at 1 µg/mL was 27 mm. For the same molecule, the “Plasma Stability Mouse” value in series [6] (setting [15]) came to 105%. In addition, in series [7] (setting [16]), the “Metabolic Stability Mouse” value is 78%. Also, in series [8] (setting [17]), the “Chemical Stability” value is listed as 61%. The “Plasma Stability Human” value in series [9] (setting [18]) came to 107%.

`NNC(=O)c1ccncc1` [isoniazid]: the MIC in series [10] was 20 to 200 ng/mL.

On to `O=c1nc(N2CCC(Cc3ccccc3)CC2)sc2c([N+](=O)[O-])cc(C(F)(F)F)cc12` [Compound 6], for which the MIC in [1] is 32 ng/mL (≈ 71.2 nM); in [2], less than 5 ng/mL; in series [3] it was less than 0.0012 ng/mL. Also, the “Metabolic Stability Human” value in series [4] (setting [14]) is on record as 1%. For the same molecule, the “Plasma Stability Mouse” value in series [6] (setting [15]) was 108%. Besides, in [7] (setting [16]), the “Metabolic Stability Mouse” value was 0%. Also, the “Chemical Stability” value in series [8] (setting [17]) was determined as 55%. In [9] (setting [18]), the “Plasma Stability Human” value was determined as 98%.

Turning to `C[C@H]1COC2(CCN(c3nc(=O)c4cc(C(F)(F)F)cc([N+](=O)[O-])c4s3)CC2)O1` [I (Ref.), reference compound], the MIC in [1] is less than 15 ng/mL; in [2], less than 5 ng/mL; in series [3], 0.625 ng/mL (≈ 1.45 nM); in series [11], 1.56 ng/mL (≈ 3.62 nM); in series [12] it was greater than 100000 ng/mL. For the same molecule, in series [4] (human, 1 µM), the “Metabolic Stability Human” value came to 107%. The molecule also displayed a zone of inhibition at 1 µg/mL in series [5] of 17 mm. In addition, the “colonies in the inhibition zone” value in series [5] is recorded as “p-P”. The “Plasma Stability Mouse” value in series [6] (mouse, 5 µM) was found to be 45%. In addition, the “Metabolic Stability Mouse” value in series [7] (mouse, 1 µM) stood at 97%. Also, in series [8] (5 µM), the “Chemical Stability” value was found to be 98%. Further, the “Plasma Stability Human” value in series [9] (human, 5 µM) is 98%.

Regarding `CC[C@@H](CO)NCCN[C@@H](CC)CO` [ethambutol], the MIC in series [10] is 1000 to 5000 ng/mL.

For `O=c1nc(N2CCC(c3ccc(Cl)cc3)CC2)sc2c([N+](=O)[O-])cc(C(F)(F)F)cc12` [Compound 2], in [1] (M. 1b., MDR M. tuberculosis), the “MIC M. 1b.” value is 4 ng/mL (≈ 8.51 nM). Moreover, the MIC in [1] is 4 ng/mL (≈ 8.51 nM); in series [2], less than 5 ng/mL; in series [3], less than 0.0012 ng/mL. The “MIC M. smeg. SG987” value in [2] (M. smeg. SG987) was less than 5 ng/mL. Further, the “MIC M. vaccae 10670” value in [3] (M. vaccae 10670) was less than 0.0012 ng/mL. The “Metabolic Stability Human” value in [4] (setting [14]) is 59%. The molecule further displayed a zone of inhibition at 1 µg/mL in series [5] of 22 mm. Further, in series [6] (setting [15]), the “Plasma Stability Mouse” value is reported as 88%. The “Metabolic Stability Mouse” value in [7] (setting [16]) turned out to be 39%. For the same molecule, the “Chemical Stability” value in series [8] (setting [17]) came out at 52%. Further, the “Plasma Stability Human” value in [9] (setting [18]) turned out to be 86%.

In the case of `O=c1nc(N2CCN(Cc3ccccc3)CC2)sc2c([N+](=O)[O-])cc(C(F)(F)F)cc12` [II (Ref.), reference compound], the MIC in [2], in series [3] and in series [11] was 50 ng/mL (≈ 111 nM) each time.

With `O=c1nc(N2CCC(c3ccccc3)CC2)sc2c([N+](=O)[O-])cc(C(F)(F)F)cc12` [Compound 1], the “In-vivo Mouse Survival 4 wks” value in [13] is 4 of 10. For the same molecule, the MIC in series [1] was less than 15 ng/mL; in series [2] it was 4 ng/mL (≈ 9.19 nM); in [3] it was 0.4 ng/mL (≈ 0.919 nM); in series [11], 12.5 ng/mL (≈ 28.7 nM); in series [12], greater than 100 ng/mL. Also, the “Metabolic Stability Human” value in series [4] (setting [14]) was 120%. Besides, the “Plasma Stability Mouse” value in [6] (setting [15]) came out at 71%. Further, the “Metabolic Stability Mouse” value in series [7] (setting [16]) turned out to be 75%. Also, in series [8] (setting [17]), the “Chemical Stability” value was 82%. For the same molecule, the “Plasma Stability Human” value in [9] (setting [18]) was 96%.

For `Cc1cccc(C2CCN(c3nc(=O)c4cc(C(F)(F)F)cc([N+](=O)[O-])c4s3)CC2)c1` [Compound 7], the MIC in series [1] is 8 ng/mL (≈ 17.8 nM); in [2], less than 5 ng/mL; in series [3] it was less than 0.0012 ng/mL. Besides, the “Metabolic Stability Human” value in series [4] (setting [14]) stood at 21%. In addition, the “Plasma Stability Mouse” value in series [6] (setting [15]) is 100%. Further, in series [7] (setting [16]), the “Metabolic Stability Mouse” value is 18%. The “Chemical Stability” value in [8] (setting [17]) was found to be 53%. Moreover, the “Plasma Stability Human” value in [9] (setting [18]) is listed as 103%.

Turning to `O=c1nc(N2CCC(c3cccc(F)c3)CC2)sc2c([N+](=O)[O-])cc(C(F)(F)F)cc12` [Compound 4], the MIC was 16 ng/mL (≈ 35.3 nM) in [1], less than 5 ng/mL in [2] and less than 0.0012 ng/mL in series [3]. Besides, the “Metabolic Stability Human” value in [4] (setting [14]) was found to be 28%. In [5], this molecule yielded a zone of inhibition at 1 µg/mL of 24 mm. For the same molecule, the “Plasma Stability Mouse” value in series [6] (setting [15]) was 107%. The “Metabolic Stability Mouse” value in [7] (setting [16]) worked out at 10%. Besides, the “Chemical Stability” value in [8] (setting [17]) worked out at 71%. In series [9] (setting [18]), the “Plasma Stability Human” value is reported as 99%.

`O=c1nc(N2CCC(c3ccc(F)c(F)c3)CC2)sc2c([N+](=O)[O-])cc(C(F)(F)F)cc12` [Compound 5]: the figures for the MIC in series [1], in [2] and in [3] were 8 ng/mL (≈ 17 nM), less than 5 ng/mL and less than 0.0012 ng/mL, respectively. In addition, the “Metabolic Stability Human” value in series [4] (setting [14]) came out at 49%. This molecule yielded a zone of inhibition at 1 µg/mL in series [5] of 27 mm. In series [6] (setting [15]), the “Plasma Stability Mouse” value was found to be 111%. The “Metabolic Stability Mouse” value in series [7] (setting [16]) worked out at 28%. Also, the “Chemical Stability” value in series [8] (setting [17]) was determined as 63%. For the same molecule, the “Plasma Stability Human” value in series [9] (setting [18]) was 124%.

For `O=C(O)c1cn(C2CC2)c2cc(N3CCNCC3)c(F)cc2c1=O` [III (Ref.), ciprofloxacin, reference compound], the MIC in series [2] worked out at 200 ng/mL (≈ 604 nM). Besides, in series [5], the zone of inhibition at 1 µg/mL was 20 mm and the “colonies in the inhibition zone” value was “p”.
